The target in the assay is human APJ receptor (Homo sapiens (Human), UniProt P35414). As to the kind of experiment: biochemical. The assay is classed as biochemical. Particulars: [35S]GTPγS binding, CHO membranes expressing human APJ receptor; read-out: Activity hAPJ SPA EC50 IP. In short, it runs like this: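 Membranes of a stable CHO line carrying human APJ (pFLAG-CMV-3) were used in a GTPγS binding format; buffer GDP, MgCl2 and NaCl were optimized, and plates were read after 90 min at RT.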
human APJ receptor, sequence (P35414 whole entry): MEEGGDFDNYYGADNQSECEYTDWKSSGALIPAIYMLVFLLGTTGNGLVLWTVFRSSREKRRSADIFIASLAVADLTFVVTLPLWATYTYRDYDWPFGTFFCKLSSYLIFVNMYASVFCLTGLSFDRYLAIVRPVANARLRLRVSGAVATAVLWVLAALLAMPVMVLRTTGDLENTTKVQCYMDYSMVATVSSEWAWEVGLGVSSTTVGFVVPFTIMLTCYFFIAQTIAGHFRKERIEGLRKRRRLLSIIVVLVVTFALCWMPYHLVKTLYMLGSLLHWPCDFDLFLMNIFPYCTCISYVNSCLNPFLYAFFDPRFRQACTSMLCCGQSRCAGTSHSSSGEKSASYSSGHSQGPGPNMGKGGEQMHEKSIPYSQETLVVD

On to `COc1cccc(OC)c1-n1c(NS(=O)(=O)[C@@H](C)[C@H](C)c2ncc(F)cn2)nnc1-c1ccn(C(F)F)n1` [Example 194.0, (2S,3R)-N-(5-(1-(difluoromethyl)-1H-pyrazol-3-yl)-4-(2,6-dimethoxyphenyl)-4H-1,2,4-triazol-3-yl)-3-(5-fluoro-2-pyrimidinyl)-2-butanesulfonamide], for which the EC50 stood at 0.48 nM.
`Cn1ccc(-c2nnc(NS(=O)(=O)[C@@H]3C[C@H](O)CN(c4ncc(F)cn4)C3)n2-c2c(F)cccc2F)n1` (single isomer, unassigned) [Example 299.0, (3R,5S)-N-(4-(2,6-difluorophenyl)-5-(1-methyl-1H-pyrazol-3-yl)-4H-1,2,4-triazol-3-yl)-1-(5-fluoro-2-pyrimidinyl)-5-hydroxy-3-piperidinesulfonamide or (3S,5R)-N-(4-(2,6-difluorophenyl)-5-(1-methyl-1H-pyrazol-3-yl)-4H-1,2,4-triazol-3-yl)-1-(5-fluoro-2-pyrimidinyl)-5-hydroxy-3-piperidinesulfonamide]: the EC50 worked out at 520 nM.
Then `COc1cccc(OC)c1-n1c(NS(=O)(=O)[C@H](C)Cc2ncc(F)cn2)nnc1-c1ccncn1` (single isomer, unassigned) [Example 38.0, (R)-N-(4-(2,6-dimethoxyphenyl)-5-(pyrimidin-4-yl)-4H-1,2,4-triazol-3-yl)-1-(5-fluoropyrimidin-2-yl)propane-2-sulfonamide or (R)-N-(4-(2,6-dimethoxyphenyl)-5-(pyrimidin-4-yl)-4H-1,2,4-triazol-3-yl)-1-(5-fluoropyrimidin-2-yl)propane-2-sulfonamide], with 84 nM; and `COc1cccc(OC)c1-n1c(NS(=O)(=O)C[C@@H](O)c2ccc(F)cc2F)nnc1-c1ccn(C)n1` (racemic) [Example 116.0, (S)-2-(2,4-difluorophenyl)-N-(4-(2,6-dimethoxyphenyl)-5-(1-methyl-1H-pyrazol-3-yl)-4H-1,2,4-triazol-3-yl)-2-hydroxyethanesulfonamide and (R)-2-(2,4-difluorophenyl)-N-(4-(2,6-dimethoxyphenyl)-5-(1-methyl-1H-pyrazol-3-yl)-4H-1,2,4-triazol-3-yl)-2-hydroxyethanesulfonamide], with 2.6 nM; and `COc1ncnc(OC)c1-n1c(NS(=O)(=O)[C@@H](C)[C@H](C)c2ccc(Cl)cn2)nnc1-c1cnn(C)c1` [Example 535.0, (2S,3R)-3-(5-chloro-2-pyridinyl)-N-(4-(4,6-dimethoxy-5-pyrimidinyl)-5-(1-methyl-1H-pyrazol-4-yl)-4H-1,2,4-triazol-3-yl)-2-butanesulfonamide], with 0.66 nM.
Turning to `COc1cccc(OC)c1-n1c(NS(=O)(=O)CCc2ccc(Cl)cc2)nnc1-c1ncco1` [Example 92.0, 2-(4-chlorophenyl)-N-(4-(2,6-dimethoxyphenyl)-5-(oxazol-2-yl)-4H-1,2,4-triazol-3-yl)ethanesulfonamide], the EC50 was 71 nM.
The result for `COc1cccc(OC)c1-n1c(NS(=O)(=O)[C@@H](C)[C@H](C)c2ncc(C#N)cn2)nnc1-c1cc2n(n1)CCC2` [Example 225.0] reads 2 nM.
Take `COc1cccc(OC)c1-n1c(NS(=O)(=O)[C@@H](C)[C@H](OC)c2ncc(C)cn2)nnc1-c1ccc(C)s1` [Example 332.0, (1R,2S)-N-(4-(2,6-dimethoxyphenyl)-5-(5-methyl-2-thiophenyl)-4H-1,2,4-triazol-3-yl)-1-methoxy-1-(5-methyl-2-pyrimidinyl)-2-propanesulfonamide]: the concentration giving a half-maximal response (EC50) amounted to 0.37 nM.
As to `COc1cccc(OC)c1-n1c(NS(=O)(=O)[C@@H](C)[C@H](OC)c2ncc(Cl)cn2)nnc1-c1ccn(C(F)F)n1` [Example 207.0, (1R,2S)-1-(5-chloro-2-pyrimidinyl)-N-(5-(1-(difluoromethyl)-1H-pyrazol-3-yl)-4-(2,6-dimethoxyphenyl)-4H-1,2,4-triazol-3-yl)-1-methoxy-2-propanesulfonamide], the 50% effective concentration (EC50) worked out at 0.13 nM.
The result for `COc1cccc(OC)c1-n1c(NS(=O)(=O)[C@@H](C)[C@H](OC)c2ncc(Cl)cn2)nnc1-c1cc(C)on1` [Example 496.0, (1R,2S)-1-(5-chloropyrimidin-2-yl)-N-(4-(2,6-dimethoxyphenyl)-5-(5-methylisoxazol-3-yl)-4H-1,2,4-triazol-3-yl)-1-methoxypropane-2-sulfonamide] reads 0.62 nM; that for “(R)-N-(4-(2,6-dimethoxyphenyl)-5-(1,5-dimethyl-1H-pyrazol-3-yl)-4H-1,2,4-triazol-3-yl)-1-(5-fluoropyrimidin-2-yl)propane-2-sulfonamide and (S)-N-(4-(2,6-dimethoxyphenyl)-5-(1,5-dimethyl-1H-pyrazol-3-yl)-4H-1,2,4-triazol-3-yl)-1-(5-fluoropyrimidin-2-yl)propane-2-sulfonamide [Example 53.0]”, 9.7 nM.
Then `COc1cccc(OC)c1-n1c(NS(=O)(=O)CCc2ccc(Cl)cc2)nnc1-c1cncn1C` [Example 93.0, 2-(4-chlorophenyl)-N-(4-(2,6-dimethoxyphenyl)-5-(1-methyl-1H-imidazol-5-yl)-4H-1,2,4-triazol-3-yl)ethanesulfonamide], with 20 nM; and `COc1ccc([C@@H](C)[C@H](C)S(=O)(=O)Nc2nnc(-c3ccn(C)n3)n2-c2c(OC)ncnc2OC)nc1` [Example 458.0, (2S,3R)-N-(4-(4,6-dimethoxy-5-pyrimidinyl)-5-(1-methyl-1H-pyrazol-3-yl)-4H-1,2,4-triazol-3-yl)-3-(5-methoxy-2-pyridinyl)-2-butanesulfonamide], with 2.8 nM; and `CO[C@H]1CCC[C@@H](OC)C1n1c(NS(=O)(=O)[C@@H](C)[C@H](C)c2ncc(Cl)cn2)nnc1-c1cnn2ccccc12` (stereo partly drawn) [Example 442.0, (2S,3R)-3-(5-chloropyrimidin-2-yl)-N-(4-((1r,2R,6S)-2,6-dimethoxycyclohexyl)-5-(pyrazolo[1,5-a]pyridin-3-yl)-4H-1,2,4-triazol-3-yl)butane-2-sulfonamide], with 190 nM.
Then `COc1cccc(OC)c1-n1c(NS(=O)(=O)[C@@H](C)[C@H](OC)c2cnc(C)cn2)nnc1-c1cc2n(n1)CCC2` [Example 216.0, (1R,2S)-N-(5-(5,6-dihydro-4H-pyrrolo[1,2-b]pyrazol-2-yl)-4-(2,6-dimethoxyphenyl)-4H-1,2,4-triazol-3-yl)-1-methoxy-1-(5-methyl-2-pyrazinyl)-2-propanesulfonamide], with 3.7 nM.
For `COc1cccc(OC)c1-n1c(NS(=O)(=O)[C@@H](C)[C@H](OC)c2ncc(C)cn2)nnc1-c1cnn2c1CCC2` [Example 444.0, (1R,2S)-N-(5-(5,6-dihydro-4H-pyrrolo[1,2-b]pyrazol-3-yl)-4-(2,6-dimethoxyphenyl)-4H-1,2,4-triazol-3-yl)-1-methoxy-1-(5-methylpyrimidin-2-yl)propane-2-sulfonamide], the EC50 was 1.2 nM.
The result for `CCn1ccc(-c2nnc(NS(=O)(=O)[C@@H](C)[C@H](C)c3ncc(C)cn3)n2-c2c(OC)cccc2OC)n1` [Example 389.0, (2S,3R)-N-(4-(2,6-Dimethoxyphenyl)-5-(1-ethyl-1H-pyrazol-3-yl)-4H-1,2,4-triazol-3-yl)-3-(5-methylpyrimidin-2-yl)butane-2-sulfonamide] reads 0.34 nM.
Then `COc1cccc(OC)c1-n1c(NS(=O)(=O)[C@@H](C)[C@H](OC)c2ncc(Cl)cn2)nnc1-c1cnn2c1CCC2` [Example 488.0, (1R,2S)-1-(5-chloropyrimidin-2-yl)-N-(5-(5,6-dihydro-4H-pyrrolo[1,2-b]pyrazol-3-yl)-4-(2,6-dimethoxyphenyl)-4H-1,2,4-triazol-3-yl)-1-methoxypropane-2-sulfonamide], with 0.2 nM; and `COc1cccc(OC)c1-n1c(NS(=O)(=O)[C@@H](C)[C@H](OC)c2ncc(C)cn2)nnc1-c1ccn(C)n1` [Example 200.0, (1R,2S)-N-(4-(2,6-dimethoxyphenyl)-5-(1-methyl-1H-pyrazol-3-yl)-4H-1,2,4-triazol-3-yl)-1-methoxy-1-(5-methyl-2-pyrimidinyl)-2-propanesulfonamide], with 0.79 nM.
The result for `COc1cccc(OC)c1-n1c(NS(=O)(=O)[C@@H](C)[C@H](C)c2ncc(C)cn2)nnc1-c1cnn(C)c1` [Example 215.0, (2S,3R)-N-(4-(2,6-dimethoxyphenyl)-5-(1-methyl-1H-pyrazol-4-yl)-4H-1,2,4-triazol-3-yl)-3-(5-methyl-2-pyrimidinyl)-2-butanesulfonamide] reads 0.42 nM.
For `COc1ccccc1-n1c(NS(=O)(=O)CCc2ccc(Cl)cc2)nnc1-c1ccc(F)s1` [Example 239.0, 2-(4-chlorophenyl)-N-(5-(5-fluorothiophen-2-yl)-4-(2-methoxyphenyl)-4H-1,2,4-triazol-3-yl)ethanesulfonamide], the concentration for a half-maximal effect (EC50) worked out at 210 nM.
With `O=S(=O)(CCc1ccc(Cl)cc1)Nc1nnc(-c2ccc(F)s2)n1-c1ccccc1OC(F)F` [Example 244.0, 2-(4-chlorophenyl)-N-(4-(2-(difluoromethoxy)phenyl)-5-(5-fluoro-2-thiophenyl)-4H-1,2,4-triazol-3-yl)ethanesulfonamide], the concentration for a half-maximal effect (EC50) amounted to 21 nM.
With `COc1cccc(OC)c1-n1c(NS(=O)(=O)[C@H](C)[C@@H](C)c2ncc(Cl)cn2)nnc1-c1n[nH]c2ccccc12` [Example 430.0], the EC50 turned out to be 2.8 nM.
Then `COc1cccc(OC)c1-n1c(NS(=O)(=O)[C@@H](C)[C@H](OC)c2ncc(Cl)cn2)nnc1-c1c[nH]cn1` [Example 523.0, (1R,2S)-1-(5-chloropyrimidin-2-yl)-N-(4-(2,6-dimethoxyphenyl)-5-(1H-imidazol-4-yl)-4H-1,2,4-triazol-3-yl)-1-methoxypropane-2-sulfonamide], with 3.2 nM.
Then `COCC[C@@H]([C@H](C)c1ncc(F)cn1)S(=O)(=O)Nc1nnc(-c2nc(C)cs2)n1-c1c(OC)cccc1OC` (single isomer, unassigned) [Example 19.0], with 6.3 nM.
